Data as given in patent US4292249A, “25-Hydroxy-24-oxocholestane derivatives and preparation thereof” (priority 1979, dated 1981).

Assays:
[1] = molecular target: T1, 1α,25-dihydroxy cholecalciferol-receptor in the chick's intestinal tube (Gallus gallus, UniProt O42392); assay: Combination (binding) with the 1α,25-dihydroxy cholecalciferol-receptor, competitive displacement
T1 construct: 1α,25-dihydroxy cholecalciferol-receptor in the chick's intestinal tube; from tissue; host or cells: chick intestine
T1 sequence (O42392 1-451): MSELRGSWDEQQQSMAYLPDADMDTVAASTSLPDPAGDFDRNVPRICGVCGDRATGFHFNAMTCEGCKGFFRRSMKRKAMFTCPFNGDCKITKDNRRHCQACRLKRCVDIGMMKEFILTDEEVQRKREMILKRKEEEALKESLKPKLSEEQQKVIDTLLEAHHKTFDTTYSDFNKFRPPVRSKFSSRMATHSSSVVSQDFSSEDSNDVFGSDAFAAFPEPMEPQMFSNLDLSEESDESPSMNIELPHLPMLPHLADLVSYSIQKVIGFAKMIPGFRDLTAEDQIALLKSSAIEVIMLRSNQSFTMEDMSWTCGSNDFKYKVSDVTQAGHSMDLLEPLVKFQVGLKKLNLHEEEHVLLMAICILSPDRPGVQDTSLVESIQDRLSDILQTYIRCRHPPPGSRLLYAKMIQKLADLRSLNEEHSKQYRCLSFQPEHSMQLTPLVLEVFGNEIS

[2] = tested on: calcium absorption at the intestinal tube; assay: Effect to promote calcium absorption from the intestinal tract (everted gut sac method); type: in vivo, Wistar male rats; details: vitamin D-deficient rats, 250 ng/head intravenously, measured 4, 8, 24 and 48 hour later
Method: They were killed 4 hour, 8 hour, 24 hour and 48 hour later, and calcium absorption at the intestinal tube was measured by the everted gut sac method [see Martin, D. L. and Deluca, H. F., Amer, J. Physiol.

In the case of `C=C1/C(=C\C=C2/CCC[C@]3(C)[C@@H]([C@H](C)CCC(=O)C(C)(C)O)CC[C@@H]23)C[C@@H](O)C[C@@H]1O` [1α,25-dihydroxy-24-oxo-cholecarciferol, 1α,25-dihydroxy-24-oxo cholecalciferol], the “50% Displacement” value ([1]; chick intestinal receptor) is reported as 138 pg and the Molar ratio ([1]; relative to 1α,25-dihydroxy cholecalciferol = 1) is reported as 3.

`C=C1CC[C@H](O)C/C1=C/C=C1\CCC[C@]2(C)[C@@H]([C@H](C)CCC(=O)C(C)(C)O)CC[C@@H]12` [25-hydroxy-24-oxo-cholecalciferol, 25-hydroxy-24-oxocholecalciferol] was tested, and the “time after administration at which the effect on intestinal calcium absorption showed” value [2] was “about 4 hours” and the “time for which the effect on intestinal calcium absorption continued” value [2] was 44 h.
